Data from ChEMBL document CHEMBL3091347, “Comparison of Multiple Linear Regressions and Neural Networks based QSAR models for the design of new antitubercular compounds” (Eur J Med Chem, 2013).
In brackets after ≈: the same amount, converted by molar mass.

Tests used:
[1] = Lipophilicity, log P of the compound; conditions: octanol/water
[2] = system: Mycobacterium tuberculosis; test: Antitubercular activity against Mycobacterium tuberculosis; type: functional; conditions: for MIC: Mycobacterium tuberculosis
[3] = system: Mycobacterium tuberculosis; test: Antitubercular activity against Mycobacterium tuberculosis H37Rv; type: functional; conditions: for MIC: Mycobacterium tuberculosis, H37Rv

Compound	logP ([1]; logP)	log(1/MIC) [2]	MIC [2] [µg/mL]	log(1/MIC) [3]	MIC [3] [µg/mL]	logP [1]
NNC(=O)c1ccc([N+](=O)[O-])o1	-0.396	0.1	0.8 (≈ 4.68 µM)			
NNC(=O)c1ccccc1[N+](=O)[O-]	-1.1	-2.48	300 (≈ 1660 µM)			
NNC(=O)c1c[nH]cn1	-2.85	-0.9	8 (≈ 63.4 µM)			
NNC(=O)c1ccnc2ccccc12	-1.35	-1.9	80 (≈ 427 µM)			
NNC(=O)c1cccc([N+](=O)[O-])c1	-1.1	0.22	0.6 (≈ 3.31 µM)			
CN(C)C(=O)N1CCC(C(=O)NN)CC1	-3.12	-2.78	600 (≈ 2800 µM)			
CC(=O)NNC(=O)c1ccncc1	-3.45	-1.18	15 (≈ 83.7 µM)			
CC(=O)N(Nc1ccccc1)c1ccccc1	1.31	-2	100 (≈ 442 µM)			
N/C(COc1ccc(Cl)cc1)=N\NC(=O)c1ccncc1	1.34			-0.494	3.12 (≈ 10.2 µM)	
O=C(NNC(=O)c1ccco1)c1ccco1	1.38	-2	100 (≈ 454 µM)			
Cc1ccccc1OC/C(N)=N/NC(=O)c1ccncc1	1.27			-1.097	12.5 (≈ 44 µM)	
C/C(=N\NC(=O)c1ccncc1)c1cccc(CN2CCN(c3ccc(F)cc3)CC2)c1O	3.68			0.3963	0.4 (≈ 0.894 µM)	
CCCCCCCCC(=O)NNC(=O)c1ccncc1	2.22			1.602	0.03 (≈ 0.108 µM)	
Cc1cccc(OC/C(N)=N/NC(=O)c2ccncc2)c1	1.27			-0.494	3.12 (≈ 11 µM)	
Cc1ccc(OC/C(N)=N/NC(=O)c2ccncc2)cc1	1.27			-0.796	6.25 (≈ 22 µM)	
N/C(COc1cccc(Cl)c1)=N\NC(=O)c1ccncc1	1.34			-0.494	3.12 (≈ 10.2 µM)	
NNC(=O)CN1CSC(N)=N1		-2.48	300 (≈ 1710 µM)			-4.033
C/C(=N\NC(=O)c1ccncc1)c1cccc(CN(C)C)c1O	1.19			0.09006	0.81 (≈ 2.59 µM)	
CCN(CC)Cc1cccc(/C(C)=N/NC(=O)c2ccncc2)c1O	2.09			0.09061	0.81 (≈ 2.38 µM)	
CCCCN(CCCC)Cc1cccc(/C(C)=N/NC(=O)c2ccncc2)c1O	4.05			-0.2078	1.61 (≈ 4.06 µM)	
C/C(=N\NC(=O)c1ccncc1)c1cccc(CN2CCCCC2)c1O	2.55	-0.21	1.62 (≈ 4.6 µM)			

Compound	logP ([1]; logP)	log(1/MIC) [2]	MIC [2] [µg/mL]	log(1/MIC) [3]	MIC [3] [µg/mL]	logP [1]
C/C(=N\NC(=O)c1ccncc1)c1cccc(CN2CCCC2)c1O	1.99			-0.2108	1.62 (≈ 4.79 µM)	
C/C(=N\NC(=O)c1ccncc1)c1cccc(CN2CCOCC2)c1O	1.61			0.09122	0.81 (≈ 2.29 µM)	
C/C(=N\NC(=O)c1ccncc1)c1cccc(CN(c2ccccc2)c2ccccc2)c1O	4.12			-0.2064	1.61 (≈ 3.69 µM)	
C/C(=N\NC(=O)c1ccncc1)c1cccc(CN2CCNCC2)c1O	1.05			0.6866	0.21 (≈ 0.594 µM)	
C/C(=N\NC(=O)c1ccncc1)c1cccc(CN2CCN(C)CC2)c1O	1.99	-0.52	3.28 (≈ 8.93 µM)			
C/C(=N\NC(=O)c1ccncc1)c1cccc(CN(Cc2ccccc2)Cc2ccccc2)c1O	4.33			-0.2063	1.61 (≈ 3.47 µM)	
C/C(=N\NC(=O)c1ccncc1)c1cccc(CN2CCN(c3cc4c(cc3F)c(=O)c(C(=O)O)cn4C3CC3)CC2)c1O	4.2			0.09913	0.8 (≈ 1.34 µM)	
CCn1cc(C(=O)O)c(=O)c2cc(F)c(N3CCN(Cc4cccc(/C(C)=N/NC(=O)c5ccncc5)c4O)C(C)C3)c(F)c21 (stereo not drawn)	4.81			0.09873	0.8 (≈ 1.29 µM)	
C/C(=N\NC(=O)c1ccncc1)c1cccc(CN2CCN(c3ccccn3)CC2)c1O	2.59			0.3979	0.4 (≈ 0.929 µM)	
C/C(=N\NC(=O)c1ccncc1)c1cccc(CN2CCN(Cc3ccccc3)CC2)c1O	3.83			0.3951	0.4 (≈ 0.902 µM)	
CC(C)=NNC(=O)c1cccs1	-0.404	0.35	0.45 (≈ 2.47 µM)			
CN(C)NC(=O)c1ccco1	0.653	-2.48	300 (≈ 1950 µM)			
CC(C)/C=N\NC(=O)c1ccco1	1.19	0.82	0.15 (≈ 0.832 µM)			
O=C(N/N=C/C(O)C(O)C(O)C(O)CO)c1ccco1 (stereo not drawn)	-3.86	-0.78	6 (≈ 20.8 µM)			
NNC(=O)C1CCCO1 (stereo not drawn)	-2.12	0.52	0.3 (≈ 2.31 µM)			
NNC(=O)c1cccs1	-1.2	-0.9	8 (≈ 56.3 µM)			
NNS(=O)(=O)c1ccc(N)cc1	-1.85	-1.4	25 (≈ 134 µM)			
CC(=O)NNC(C)=O	-3.91	-2.78	600 (≈ 5170 µM)			
CON1C(=O)C(=O)N1c1ccc([N+](=O)[O-])cc1	0.963	1.52	0.03 (≈ 0.126 µM)			
Nc1ccc(S(=O)(=O)NNC(=O)c2ccncc2)cc1	-2.51	-2.78	600 (≈ 2050 µM)			
